Measurements reported in patent US5389687A, “Ring-substituted 2-amino-1,2,3,4-tetra-hydronaphthalenes” (Eli Lilly and Company, priority 1991, dated 1995).
Where “and” joins values, the source holds several entries; their conditions need not be identical. Identical values can stand only once. Like-named read-outs stand apart in the source and are kept apart here.

Legend:
5HT1a receptors = biological target: T1, 5HT1a receptors (Rattus norvegicus, UniProt P19327); experiment: Binding at 5HT1a receptors in vitro (inhibition of 3H-8-OH-DPAT binding to synaptosomal membranes from cerebral cortex); parameters: species or system Male Sprague-Dawley rats; conditions: 0.4 nM 3H-8-OH-DPAT, 37° C., 10 min, pH 7.4, several values in a cell are separate determinations
T1 construct: synaptosomal membranes isolated from cerebral cortex; from tissue; host or cells: rat cerebral cortex, crude synaptosomal membranes (Male Sprague-Dawley rats from Harlan Industries)
T1 sequence (P19327 1-422): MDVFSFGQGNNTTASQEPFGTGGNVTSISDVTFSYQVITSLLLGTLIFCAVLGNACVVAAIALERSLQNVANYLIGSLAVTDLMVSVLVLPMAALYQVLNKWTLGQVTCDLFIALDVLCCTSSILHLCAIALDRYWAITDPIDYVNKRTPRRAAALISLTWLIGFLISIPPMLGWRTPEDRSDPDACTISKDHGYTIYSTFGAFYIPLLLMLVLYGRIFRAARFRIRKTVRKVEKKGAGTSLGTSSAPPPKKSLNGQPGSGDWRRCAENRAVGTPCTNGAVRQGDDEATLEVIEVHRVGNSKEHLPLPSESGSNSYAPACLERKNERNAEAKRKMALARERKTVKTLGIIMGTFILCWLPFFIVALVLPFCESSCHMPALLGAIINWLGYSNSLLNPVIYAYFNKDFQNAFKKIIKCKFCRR
Method: This general procedure is set forth in Wong et al., J. Neural Transm. 71:207-218 (1988).
Male Sprague-Dawley rats (110-150 g) from Harlan Industries (Cumberland, Ind.) were fed a Purina Chow ad libitum for at least 3 days before being used in the studies. Rats were killed by decapitation. The brains were rapidly removed, and the cerebral cortices were dissected out at 4° C.
Brain tissues were homogenized in 0.32 M sucrose. After centrifugation at 1000×g for 10 min and then at 17000×g for 20 min, a crude synaptosomal fraction was sedimented. The pellet was suspended in 100 vol of 50 mM Tris-HCl, pH 7.4, incubated at 37° C. for 10 min, and centrifuged at 50000×g for 10 min. The process was repeated and the final pellet was suspended in ice-chilled 50 mM Tris-HCl, pH 7.4. By the radio-ligand binding method, sites specifically labeled by tritiated 8-hydroxy-2-dipropylamino-1,2,3,4-tetrahydronaphthalene ([…]) have been identified as 5HT-1a receptors.
Binding of (^3 H-8-OH-DPAT) was performed according to the previously described method [Wong et al., J. Neural Transm. 64:251-269 (1985)]. Briefly, synaptosomal membranes isolated from cerebral cortex were incubated at 37° C. for 10 min. in 2 ml of 50 mM Tris-HCl, pH 7.4; 10 μM pargyline; 0.6 mM ascorbic acid; and 0.4 nM […]. Binding was terminated by filtering samples under reduced pressure through glass fiber (GFB) filters. The filters were washed twice with 5 ml of ice cold buffer and placed in scintillation vials with 10 ml of PCS (Amersham/Searle) scintillation fluid. Radioactivity was measured with a liquid scintillation spectrometer. Unlabeled 8-OH-DPAT at 10 μM was also included in separate samples to establish non-specific binding. Specific binding of ^3 H-8-OH-DPAT is defined as the difference of radioactivity bound in the absence and in the presence of 10 μM unlabeled 8-OH-DPAT.

[1] = tested on: conscious spontaneous hypertensive rats (SHR); experiment: Effect on blood pressure after i.v. administration to conscious SHR; assay type: in vivo; conditions: for ED25: Rattus norvegicus, iv, read-out: Blood Pressure ED25 (i.v. dose required to decrease pressure 25%)
Method: (§1) The compounds of this invention are also effective in reducing blood pressure. The blood pressure lowering effect of the compounds of this invention was determined in conscious spontaneous hypertensive rats (SHR; 325-425 g). The rats were anesthetized with halothane (2% in nitrous oxide and oxygen) and were implanted with femoral arterial and venous catheters. The tips of arterial and venous catheters-were positioned in the abdominal aorta below the renal arteries and lower abdominal vena cava, respectively. The catheters were routed subcutaneously to an exit point at the base of the skull and then through a small leather harness fastened around the forequarters of each animal. The animals were allowed a 3- to 4-day recovery period after surgery. On the day before an experiment, each rat was conditioned to the experimental surroundings for 6 hours. On the day of the experiment, the harness on the back of each animal was connected to a spring tether through which arterial and venous extension tubing was routed. The other end of the tubing was connected to a water tight swivel. This system permitted direct recording of blood pressure in conscious free moving animals. Mean arterial blood pressure was measured via a Statham strain gauge transducer (P23DB, Statham Instruments, Oxnard, Calif.) and recorded on a multichannel oscillograph (Beckman Model R611, Beckman Instruments, Palo Alto, Calif.). A minimum 30-minute equilibration period was observed prior to the experimental protocol during which time the animals preened and blood pressure was quite labile. Afterward, the animals appeared to sleep and pressure was stable. Following a control blood pressure measurement, rats were dosed with the compound or vehicle i.v., and pressure was monitored at various time intervals thereafter.
(§2) ^1 Standard protocol recorded the blood pressure and heart rate
(§3) responses after 0.3, 1.0 and 3.0 mg/kg i.v. Dose response curves were
(§4) plotted using the % change in pressure from pretreatment control values a
(§5) 15 and 30 minutes after treatment.
(§6) Corr = correlation coefficient for the linear relationship between the lo
(§7) dose(s) and % change (y) in pressure. Values of 1.0 = perfect correlation
(§8) Pos = Positive slope of dose response
ED25 = i.v. dose required to decrease pressure 25%

[2] = tested on: conscious spontaneous hypertensive rats (SHR); experiment: Effect on heart rate after i.v. administration to conscious SHR; assay type: in vivo; conditions: for ED15: Rattus norvegicus, iv, read-out: Heart Rate ED15
Method: as §1, §2, §3, §4, §5, §6, §7, §8
HR Index = ED15 for Heart Rate divided by ED25 for Blood

[3] = 0.25 h, 15 min. after treatment, i.v., conscious SHR
[4] = 0.5 h, 30 min. after treatment, i.v., conscious SHR
[5] = 15 min. after treatment, i.v., conscious SHR
[6] = 30 min. after treatment, i.v., conscious SHR

Row | SMILES | IC50 (5HT1a receptors; IC50 5HT1a) | ED25 [1, 3] [mg/kg] | ED25 [1, 4] [mg/kg] | HR Index (ED15 for Heart Rate divided by ED25 for Blood Pressure) [2, 5] | HR Index (ED15 for Heart Rate divided by ED25 for Blood Pressure) [2, 6] | ED15 [2, 3] [mg/kg] | ED15 [2, 4] [mg/kg] | IC50 (5HT1a receptors; read-out: IC50 5HT1a) | other results
1 | C=CCN(CC=C)C1CCc2cccc(Cl)c2C1 (stereo not shown) [Example 3, 2-Diallylamino-8-chloro-1,2,3,4-tetrahydronaphthalene] | 45.2 nM |  |  |  |  |  |  |  | 
2 | CN(C)C1CCc2cccc(Cl)c2C1 (stereo not shown) [Example 11, 2-Dimethylamino-8-chloro-1,2,3,4-tetrahydronaphthalene] |  | 1.1 | 1.8 | 1.0 | 3.00 | 1.1 | 5.4 | 580 nM and 272 nM | 
3 | CCCN(CCC)C1CCc2cccc(C(N)=O)c2C1 (stereo not shown) [Example 16, 2-Di-n-propylamino-8-carboxamido-1,2,3,4-tetrahydronaphthalene] | 7.1 nM and 9 nM and 6.1 nM and 5.8 nM | 4.2 | 5.7 | 0.35 | 0.51 | 1.5 | 2.9 |  | 
4 | CCN(C)C1CCc2cccc(Cl)c2C1 (stereo not shown) [Example 13, 2-Methylethylamino-8-chloro-1,2,3,4-tetrahydronaphthalene] |  | 0.7 | 0.9 | 0.69 | 0.70 | 0.48 | 0.63 | 120 nM | 
5 | CCCN(CCC)C1CCc2cccc(C=O)c2C1 (stereo not shown) [Example 17, 2-Di-n-propylamino-8-formyl-1,2,3,4-tetrahydronaphthalene] | 17.2 nM |  |  |  |  |  |  |  | 
6 | CCCN(CCC)C1CCc2cccc(C#N)c2C1 (stereo not shown) [Example 8, 2-Di-n-propylamino-8-cyano-1,2,3,4-tetrahydronaphthalene] | 55 nM | 5.1 | 4.1 | 0.71 | 0.68 | 3.6 | 2.8 |  | 
7 | CCN(CC)C1CCc2cccc(Cl)c2C1 (stereo not shown) [Example 2, 2-Diethylamino-8-chloro-1,2,3,4-tetrahydronaphthalene] | 48 nM and 38.2 nM |  |  |  | 1.00 |  |  |  | ED25 ([1]; 0.5 h): 1.5 mg/kg; ED15 ([2]; 0.5 h): 1.5 mg/kg
8 | CCCNC1CCc2cccc(NC(C)=O)c2C1 (stereo not shown) [Example 18, 2-Propylamino-8-acetamido-1,2,3,4-tetrahydronaphthalene] |  |  |  |  |  | 3.8 | 1.2 |  | 
9 | CCCN(CCC)C1CCc2cccc(F)c2C1 (stereo not shown) [Example 6, 2-Di-n-propylamino-8-fluoro-1,2,3,4-tetrahydronaphthalene] |  | 4.5 |  |  |  |  | 8 | 280 nM | Heart Rate ED15 [2, 5]: Pos
10 | CCCCN(CCCC)C1CCc2cccc(Cl)c2C1 (stereo not shown) [Example 4, 2-Di-n-butylamino-8-chloro-1,2,3,4-tetrahydronaphthalene] |  |  |  |  |  |  |  | 780 nM and 318 nM | 
11 | CCCNC1CCc2cccc(Cl)c2C1 (stereo not shown) [Example 10, 2-n-Propylamino-8-chloro-1,2,3,4-tetrahydronaphthalene] |  | 2.5 | 4.5 | 0.48 | 0.47 | 1.2 | 2.1 | 200 nM | 
12 | CC(C)N(C)C1CCc2cccc(Cl)c2C1 (stereo not shown) [Example 14, 2-Methylisopropylamino-8-chloro-1,2,3,4-tetrahydronaphthalene] |  | 2.9 |  | 1.31 |  | 3.8 |  |  | 
13 | CCCN(CCC)C1CCc2cccc(Br)c2C1 (stereo not shown) [Example 5, 2-Di-n-propylamino-8-bromo-1,2,3,4-tetrahydronaphthalene] | 23 nM and 15.1 nM | 6.1 | 5.9 | 0.06 | 0.27 | 1.6 | 1.6 |  | 
14 | CCCN(CCC)C1CCc2cccc(Cl)c2C1 (stereo not shown) [Example 1, 2-Di-n-propylamino-8-chloro-1,2,3,4-tetrahydronaphthalene] | 18 nM | 3.1 | 13 | 8.96 | 0.22 | 27.8 | 2.8 |  | 
15 | CNC1CCc2cccc(Cl)c2C1 (stereo not shown) [Example 12, 2-Methylamino-8-chloro-1,2,3,4-tetrahydronaphthalene] |  | 1.4 | 1.8 |  | 0.83 |  | 1.5 |  | 
16 | CCN(C)C1CCc2cccc(C(N)=O)c2C1 (stereo not shown) [Example 20, 2-Methylethylamino-8-carboxamido-1,2,3,4-tetrahydronaphthalene] |  |  |  |  |  |  |  | 400 nM | 
17 | CCCN(CCC)C1CCc2cccc(CO)c2C1 (stereo not shown) [Example 21, 2-Di-n-propylamino-8-hydroxymethyl-1,2,3,4-tetrahydronaphthalene] | 55.5 nM | 4.2 |  |  |  |  |  |  | convulsion ([1]; 3.0 mg/kg i.v., conscious SHR): caused convulsion
18 | CCCN(C)C1CCc2cccc(Cl)c2C1 (stereo not shown) [Example 15, 2-Methylpropylamino-8-chloro-1,2,3,4-tetrahydronaphthalene] |  | 1.6 | 3.8 |  |  |  |  | 500 nM | 
19 | CN(C)C1CCc2cccc(C(N)=O)c2C1 (stereo not shown) [Example 19, 2-Dimethylamino-8-carboxamido-1,2,3,4-tetrahydronaphthalene] |  | 10.9 | 1030 |  |  |  |  |  | Heart Rate ED15 [2, 5]: Pos; Heart Rate ED15 [2, 6]: Pos
20 | CCCN(CCC)C1CCc2cccc(C(=O)OC)c2C1 (stereo not shown) [Example 7, 2-Di-n-propylamino-8-methoxycarbonyl-1,2,3,4-tetrahydronaphthalene] | 1.4 nM and 1.8 nM and 2.4 nM |  | 5.3 |  | 0.21 | 1.4 | 1.1 |  | 
